Reference: patent US8841333B2, “Methods for treating nephrolithiasis” (Takeda Pharmaceuticals U.S.A., Inc., priority 2005, dated 2014)

Test: Double-blind 4-week study plus open-label extension of febuxostat in hyperuricemic subjects with gout and a history of nephrolithiasis
Assay type: in vivo, human
Description: Eighteen (18) hyperuricemic subjects with gout and a history of nephrolithiasis in their medical history were examined. Specifically, these eighteen subjects were part of a double-blind (DB) four (4) week study in which they received 40, 80 or 120 mg once daily (hereinafter referred to as “QD”) of 2-[3-cyano-4-(2-methylpropoxy)phenyl]-4-methylthiazole-5-carboxylic acid (hereinafter called “febuxostat”) or a placebo, followed by an open-label (OL) extension study of febuxostat 80 mg QD titrated to 40 mg or 120 mg QD of febuxostat based on serum uric acid levels and adverse events. The subjects were predominantly male (specifically, sixteen (16)) Caucasian, with a mean age of 55 years. Eleven (11) of the subjects had gout for more than 10 years, five (5) subjects had gout for between 5 to 10 years and two (2) subjects had gout for between 1 to 5 years. Overall, subject experienced between 1 and 20 attacks over a 2 to 45 year period prior to baseline. Twelve (12) of the subjects were classified as renally impaired (their creatinine clearance was <80 ml/minute). Six (6) subjects were considered to be uric acid overproducers (urinary uric acid excretion was greater than 800 mg/day). Comorbid conditions in these subjects included the following: hyperlipidemia (78%), hypertension (72%), obesity (56%) and coronary artery disease (17%). The mean serum urate for these subjects at baseline was 10.0 mg/dL. All subjects completed this DB study. Fifteen (15) subjects rolled over to the OL study with thirteen (13) completing treatment for a duration of greater than thirty (30) months. The majority of subjects (11/13) received daily febuxostat in the amount of 80 mg QD with two (2) subjects having their dose titrated to febuxostat 120 mg QD as per study protocol because of a post-baseline serum urate of ≧6.0 mg/dL.

In the case of `Cc1nc(-c2ccc(OCC(C)C)c(C#N)c2)sc1C(=O)O` [febuxostat, 2-[3-cyano-4-(2-methylpropoxy)phenyl]-4-methylthiazole-5-carboxylic acid], the “subjects reporting kidney stones” value (DB and OL portions, greater than 30 months of febuxostat treatment, three stones in total, one occurred on placebo, all calcium oxalate) is reported as 2 subjects out of the 18 subjects, the adverse events (DB and OL study, febuxostat 40-120 mg QD) is reported as “self-limiting and transient” and the “mean reduction in serum urate” value (at last visit versus baseline, febuxostat 40, 80 or 120 mg QD) is reported as 47%. The “mean serum urate at last visit” value (hyperuricemic gout subjects with history of nephrolithiasis, febuxostat 40, 80 or 120 mg QD, baseline mean serum urate 10.0 mg/dL) was 5.2 mg/dL.
